Source: ChEMBL document CHEMBL1201862, “PubChem BioAssay data set” (2004)
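Assay format: 96-well plates, 48-hour exposure. The concentration for 50% growth inhibition is given as GI50.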 Activity calls are given as the source filed them. Cut-off read from the data, not from the text of the source: active = GI50 up to about 1.1 µM and inactive = higher.

Key:
Assay in all cases: NCI-60 cell line screen, 48 h
DU-145 = tested on: DU-145
NCI-H23 = tested on: NCI-H23
LOX IMVI = tested on: LOX IMVI
NCI-H522 = tested on: NCI-H522
EKVX = tested on: EKVX
CCRF-CEM = tested on: CCRF-CEM
UACC-62 = tested on: UACC-62
SK-MEL-2 = tested on: SK-MEL-2
MDA-MB-435 = tested on: MDA-MB-435
SF-268 = tested on: SF-268
Malme-3M = tested on: Malme-3M
TK-10 = tested on: TK-10
HCC 2998 = tested on: HCC 2998
MDA-N = tested on: MDA-N
OVCAR-8 = tested on: OVCAR-8
CAKI-1 = tested on: CAKI-1
HCT-116 = tested on: HCT-116
OVCAR-3 = tested on: OVCAR-3
HOP-62 = tested on: HOP-62
IGROV-1 = tested on: IGROV-1

Question: Which results are given for O=C(/C=N/O)Nc1cc(Cl)c(Cl)cc1Cl?
Answer: GI50 (DU-145): 31.9 µM (inactive); GI50 (NCI-H23): 29.6 µM (inactive); GI50 (LOX IMVI): 33.8 µM (inactive); GI50 (NCI-H522): 24.9 µM (inactive); GI50 (EKVX): 23.2 µM (inactive); GI50 (CCRF-CEM): 26.7 µM (inactive); GI50 (UACC-62): 25.9 µM (inactive); GI50 (SK-MEL-2): 24.9 µM (inactive); GI50 (MDA-MB-435): 23 µM (inactive); GI50 (SF-268): 33.3 µM (inactive); GI50 (Malme-3M): 35.7 µM (inactive); GI50 (TK-10): 30.4 µM (inactive); GI50 (HCC 2998): 26.6 µM (inactive); GI50 (MDA-N): 27.7 µM (inactive); GI50 (OVCAR-8): 23.8 µM (inactive); GI50 (CAKI-1): 24.3 µM (inactive); GI50 (HCT-116): 37.1 µM (inactive); GI50 (OVCAR-3): 24.4 µM (inactive); GI50 (HOP-62): 31.6 µM (inactive); GI50 (IGROV-1): 20.7 µM (inactive)

Question: How did the GI50 (DU-145) turn out when Cc1ccc(/N=C2/C(c3ccccc3)=C(SC3=C(c4ccccc4)/C(=N/c4ccc(C)cc4)c4ccccc43)c3ccccc32)cc1 was run?
Answer: Its GI50 is 32.1 µM (inactive).

Question: And the GI50 (NCI-H23)?
Answer: Its GI50 is 14 µM (inactive).

Question: What about the GI50 (LOX IMVI) of the same compound?
Answer: Its GI50 is 67.6 µM (inactive).

Question: And the GI50 (NCI-H522)?
Answer: Its GI50 is 34.6 µM (inactive).

Question: What about the GI50 (EKVX) of the same compound?
Answer: Its GI50 is 19.1 µM (inactive).

Question: What about the GI50 (CCRF-CEM) of the same compound?
Answer: Its GI50 is > 100 µM (inactive).

Question: What about the GI50 (UACC-62) of the same compound?
Answer: The GI50 was 16.7 µM (inactive).

Question: And the GI50 (SK-MEL-2)?
Answer: Its GI50 is > 39.1 µM (inactive).

Question: And the GI50 (MDA-MB-435)?
Answer: The GI50 was > 100 µM (inactive).

Question: What about the GI50 (SF-268) of the same compound?
Answer: Its GI50 is 6.44 µM (inactive).

Question: What about the GI50 (TK-10) of the same compound?
Answer: Its GI50 is 31.9 µM (inactive).

Question: What about the GI50 (HCC 2998) of the same compound?
Answer: The GI50 was > 37.9 µM (inactive).

Question: And the GI50 (MDA-N)?
Answer: The GI50 was 97.7 µM (inactive).

Question: And the GI50 (OVCAR-8)?
Answer: The GI50 was 9.59 µM (inactive).

Question: What about the GI50 (CAKI-1) of the same compound?
Answer: The GI50 was 15.2 µM (inactive).

Question: And the GI50 (HCT-116)?
Answer: The GI50 was 20.9 µM (inactive).

Question: What about the GI50 (OVCAR-3) of the same compound?
Answer: The GI50 was 27.5 µM (inactive).

Question: And the GI50 (HOP-62)?
Answer: Its GI50 is 10 µM (inactive).

Question: And the GI50 (IGROV-1)?
Answer: Its GI50 is 17.1 µM (inactive).

Question: Which results are given for O=C1CS(=O)(=O)C(c2cccc(Oc3ccccc3)c2)N1c1cccc(Cl)c1 (stereo unspecified)?
Answer: GI50 (DU-145): 66.8 µM (inactive); GI50 (NCI-H23): 33.5 µM (inactive); GI50 (LOX IMVI): 15.7 µM (inactive); GI50 (NCI-H522): 14.9 µM (inactive); GI50 (EKVX): 17.6 µM (inactive); GI50 (CCRF-CEM): 26.1 µM (inactive); GI50 (UACC-62): 12.5 µM (inactive); GI50 (SK-MEL-2): 16.3 µM (inactive); GI50 (MDA-MB-435): 13.9 µM (inactive); GI50 (SF-268): 23.2 µM (inactive); GI50 (Malme-3M): 20 µM (inactive); GI50 (TK-10): 26.6 µM (inactive); GI50 (HCC 2998): 0.16 µM (active); GI50 (MDA-N): 16.6 µM (inactive); GI50 (OVCAR-8): 22.1 µM (inactive); GI50 (CAKI-1): 25.7 µM (inactive); GI50 (HCT-116): 13.8 µM (inactive); GI50 (OVCAR-3): 24.5 µM (inactive); GI50 (HOP-62): 40.2 µM (inactive); GI50 (IGROV-1): 19.1 µM (inactive)

Question: What does the source list for Cc1ccc(OCCn2cc(Nc3ccccc3)c(=O)[nH]c2=O)cc1?
Answer: GI50 (DU-145): > 100 µM (inactive); GI50 (NCI-H23): > 100 µM (inactive); GI50 (LOX IMVI): > 100 µM (inactive); GI50 (NCI-H522): > 100 µM (inactive); GI50 (EKVX): > 100 µM (inactive); GI50 (CCRF-CEM): > 100 µM (inactive); GI50 (UACC-62): > 100 µM (inactive); GI50 (SK-MEL-2): > 100 µM (inactive); GI50 (MDA-MB-435): > 100 µM (inactive); GI50 (SF-268): > 100 µM (inactive); GI50 (Malme-3M): > 100 µM (inactive); GI50 (TK-10): > 100 µM (inactive); GI50 (HCC 2998): > 100 µM (inactive); GI50 (MDA-N): > 100 µM (inactive); GI50 (OVCAR-8): > 100 µM (inactive); GI50 (CAKI-1): > 100 µM (inactive); GI50 (HCT-116): > 100 µM (inactive); GI50 (OVCAR-3): > 100 µM (inactive); GI50 (IGROV-1): > 100 µM (inactive)

Question: How did the GI50 (DU-145) turn out when COc1ccc(/C=C/C(=O)N[C@@H]2C(=O)N3[C@@H]2SC(C)(C)[C@@H]3C(=O)O)cc1OC was run?
Answer: Its GI50 is > 100 µM (inactive).

Question: And the GI50 (NCI-H23)?
Answer: Its GI50 is > 100 µM (inactive).

Question: What about the GI50 (LOX IMVI) of the same compound?
Answer: Its GI50 is > 100 µM (inactive).

Question: What about the GI50 (NCI-H522) of the same compound?
Answer: Its GI50 is 85.5 µM (inactive).

Question: What about the GI50 (EKVX) of the same compound?
Answer: Its GI50 is > 100 µM (inactive).

Question: And the GI50 (CCRF-CEM)?
Answer: The GI50 was > 100 µM (inactive).

Question: And the GI50 (UACC-62)?
Answer: The GI50 was > 100 µM (inactive).

Question: And the GI50 (SK-MEL-2)?
Answer: The GI50 was > 100 µM (inactive).

Question: And the GI50 (MDA-MB-435)?
Answer: The GI50 was > 100 µM (inactive).

Question: What about the GI50 (SF-268) of the same compound?
Answer: The GI50 was > 100 µM (inactive).

Question: What about the GI50 (TK-10) of the same compound?
Answer: Its GI50 is > 100 µM (inactive).

Question: What about the GI50 (HCC 2998) of the same compound?
Answer: The GI50 was > 100 µM (inactive).

Question: And the GI50 (MDA-N)?
Answer: The GI50 was > 100 µM (inactive).

Question: And the GI50 (OVCAR-8)?
Answer: The GI50 was > 100 µM (inactive).

Question: And the GI50 (CAKI-1)?
Answer: Its GI50 is > 100 µM (inactive).

Question: What about the GI50 (HCT-116) of the same compound?
Answer: Its GI50 is > 100 µM (inactive).

Question: And the GI50 (OVCAR-3)?
Answer: The GI50 was > 100 µM (inactive).

Question: And the GI50 (HOP-62)?
Answer: Its GI50 is > 100 µM (inactive).

Question: Which GI50 (DU-145) does the source give for O=C1c2cccc3cccc(c23)C(=O)N1CCCNCCCCNCCCN1C(=O)c2cccc3cccc(c23)C1=O here?
Answer: The GI50 was 0.0887 µM (active).

Question: And the GI50 (NCI-H23)?
Answer: Its GI50 is 0.0944 µM (active).

Question: And the GI50 (LOX IMVI)?
Answer: The GI50 was 0.0229 µM (active).

Question: What about the GI50 (NCI-H522) of the same compound?
Answer: The GI50 was < 0.0112 µM (active).

Question: What about the GI50 (EKVX) of the same compound?
Answer: The GI50 was 0.986 µM (active).

Question: What about the GI50 (CCRF-CEM) of the same compound?
Answer: Its GI50 is < 0.01 µM (active).

Question: And the GI50 (UACC-62)?
Answer: The GI50 was 0.337 µM (active).

Question: What about the GI50 (SK-MEL-2) of the same compound?
Answer: Its GI50 is 0.521 µM (active).

Question: And the GI50 (MDA-MB-435)?
Answer: Its GI50 is 0.159 µM (active).

Question: What about the GI50 (SF-268) of the same compound?
Answer: Its GI50 is 0.025 µM (active).

Question: What about the GI50 (Malme-3M) of the same compound?
Answer: Its GI50 is 0.144 µM (active).

Question: And the GI50 (TK-10)?
Answer: Its GI50 is 1.57 µM (inactive).

Question: And the GI50 (HCC 2998)?
Answer: The GI50 was 0.0755 µM (active).

Question: And the GI50 (MDA-N)?
Answer: Its GI50 is 0.256 µM (active).

Question: What about the GI50 (OVCAR-8) of the same compound?
Answer: The GI50 was 0.177 µM (active).

Question: And the GI50 (CAKI-1)?
Answer: The GI50 was 0.857 µM (active).

Question: And the GI50 (HCT-116)?
Answer: The GI50 was 0.0738 µM (active).

Question: And the GI50 (OVCAR-3)?
Answer: Its GI50 is 0.2 µM (active).

Question: And the GI50 (HOP-62)?
Answer: Its GI50 is 0.205 µM (active).

Question: And the GI50 (IGROV-1)?
Answer: The GI50 was 0.0697 µM (active).

Question: What does the source list for Nc1ccc2c(SCC(=O)Nc3ccccc3-c3ccccc3NC(=O)CSc3c4ccccc4nc4cc(N)ccc34)c3ccccc3nc2c1?
Answer: GI50 (DU-145): 24.2 µM (inactive); GI50 (NCI-H23): 18 µM (inactive); GI50 (LOX IMVI): 22.9 µM (inactive); GI50 (NCI-H522): 6.52 µM (inactive); GI50 (EKVX): 39.6 µM (inactive); GI50 (CCRF-CEM): 2.79 µM (inactive); GI50 (UACC-62): 18.9 µM (inactive); GI50 (SK-MEL-2): 25.6 µM (inactive); GI50 (MDA-MB-435): 22.1 µM (inactive); GI50 (SF-268): 37.1 µM (inactive); GI50 (Malme-3M): 22.9 µM (inactive); GI50 (TK-10): 38 µM (inactive); GI50 (HCC 2998): 36.1 µM (inactive); GI50 (MDA-N): 44.5 µM (inactive); GI50 (OVCAR-8): 26.3 µM (inactive); GI50 (CAKI-1): 45.5 µM (inactive); GI50 (HCT-116): 24.5 µM (inactive); GI50 (OVCAR-3): 22.2 µM (inactive); GI50 (HOP-62): 33.7 µM (inactive); GI50 (IGROV-1): 27 µM (inactive)
